Here are results for two compounds from patent US20180244629A1, “Compounds And Compositions For The Treatment Of Cancer” (The Broad Institute, Inc., priority 2013, published 2018).

The subject of this test is HeLa cells. Nature of the test: PARP cleavage assay (immunoblot). The test is classed as cell-based. Here is the method:
The mechanism of cell death was determined after contacting the cells with the compound in Example 1. […] Cells were treated for 24 h with the indicated concentrations of each agent, lysed, and immunoblotted with anti-PARP or anti-actin.
A general note: In western blotting, separated proteins are transferred to a membrane and probed.

Regarding `OO` [hydrogen peroxide], the “mechanism of cell death (PARP cleavage)” value (Hela cells treated for 24 h, anti-PARP immunoblot, FIG. 3) was “caused necrosis but not apoptosis”.

For `CN[C@@H]1C[C@H]2O[C@@](C)([C@@H]1OC)n1c3ccccc3c3c4c(c5c6ccccc6n2c5c31)C(=O)NC4` [staurosporine], the cell death entry (Hela cells, 10 μM, 24 h) is “almost complete cell death”.
